This note sets out measurements from US12454525B2, “IL4I1 inhibitors and methods of use” (Merck Sharp & Dohme LLC, priority 2020, dated 2025).

This assay has as its target T1, recombinant IL4I1 (Homo sapiens, UniProt Q96RQ9).
T1 construct: purchased R&D Systems 5684-AO-020
T1 sequence (Q96RQ9 22-567): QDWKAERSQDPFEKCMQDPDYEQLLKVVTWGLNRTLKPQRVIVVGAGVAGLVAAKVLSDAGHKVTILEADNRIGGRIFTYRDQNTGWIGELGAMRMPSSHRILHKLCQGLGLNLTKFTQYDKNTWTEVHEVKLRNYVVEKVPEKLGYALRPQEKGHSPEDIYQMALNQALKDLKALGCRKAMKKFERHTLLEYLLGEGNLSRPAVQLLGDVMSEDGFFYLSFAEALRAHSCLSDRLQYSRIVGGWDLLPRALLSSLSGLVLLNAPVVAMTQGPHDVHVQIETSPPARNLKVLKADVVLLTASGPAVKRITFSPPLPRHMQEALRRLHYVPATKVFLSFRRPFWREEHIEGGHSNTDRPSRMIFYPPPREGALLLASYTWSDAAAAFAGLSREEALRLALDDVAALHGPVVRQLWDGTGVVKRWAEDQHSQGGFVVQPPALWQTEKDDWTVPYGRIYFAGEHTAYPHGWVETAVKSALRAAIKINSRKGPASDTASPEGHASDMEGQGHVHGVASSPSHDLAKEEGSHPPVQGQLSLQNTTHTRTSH
Kind of assay: IL4I1 Enzymatic Assay (Amplex Red/HRP coupled H2O2 detection). The assay is classed as biochemical. Particulars: 240 min; four-hour pre-incubation with compound; 1 nM IL4I1, 1 mM each Phe/Tyr/Trp; ten-point titration; fluorescence readout; read-out: Potency EC50 (nM) (240 min). On the procedure: Interleukin 4 inducible protein 1 (IL4I1) is an L-amino oxidase that catalyzes the oxidation of aromatic residues (Phe, Trp and Tyr): L-amino acid+H2O+O2→2-oxo acid+NH3+H2O2. Equal molar of H2O2 and the corresponding alpha-ketoacid are produced when IL4I1 and substrate are added. In this assay, the hydrogen peroxide generated by IL4I1 is then detected through a coupled reaction with Amplex Red (10-acetyl-3,7-dihydroxyphenoxazine) and […] (HRP) to produce Resorufin product that could be detected in the form of fluorescence signals. The assessment of the inhibitory effect of small molecules (EC50) on IL4I1 is measured by the effectiveness of the compounds to inhibit the production of H2O2.
Using this assay, the potency (EC50) of each compound was determined from a ten-point (1:3 serial dilution) titration curve using the following outlined procedure. To each well of a black flat-bottom Greiner (Cat #781076) 384 well-plate, 25 nL of compound (0.1% DMSO in final assay volume of 25 μL) was dispensed, followed by the addition of 12.5 μL of 1x assay buffer (50 mM Hepes 7.0 and 0.005% Tween20 (Sigma, Cat #P8341; low peroxide grade)) containing 2 nM of recombinant IL4I1 (R&D Systems, Cat #5684-AO-020). Plates were placed in an ambient temperature humidified chamber for a four-hour pre-incubation with compound. Subsequently, each reaction was initiated by the addition of 12.5 μL 1x assay buffer containing 2 mM of each aromatic amino acids (Phe/Tyr/Trp), 0.1 mM Amplex Red and 2 U/mL of HRP. The final reaction in each well of 25 μL consists of 1 nM of IL411, 1 mM of each residues (Phe, Tyr and Trp), 0.05 mM Amplex Red and 1 U/mL of HRP. It should be noted that the concentrations of Amplex Red and HRP used here are in excess such that the conversion of H2O2 to Resorufin product occurs instantaneously and non-rate limiting. Reactions were allowed to proceed for 120 minutes followed by fluorescence readout on a Spectramax with the following set parameters: 544 nm excitation/590 nm emission, 570 nm cutoff (EnVision is an alternative reader). Dose-response curves were generated by plotting percent effect (% product conversion; Y-axis) vs. Log10 compound concentrations (X-axis). EC50 values were calculated using a non-linear regression, four-parameters sigmoidal dose-response model and are shown in Table 16.
One may read the EC50 as the concentration at which the effect is half-maximal. For `N#Cc1cccc(NC(=O)Cc2cccc(Cn3c(=O)[nH]c4ccccc43)c2)c1` [Example 104, N-(3-cyanophenyl)-2-(3-((2-oxo-2,3-dihydro-1H-benzo[d]imidazol-1-yl)methyl)phenyl)acetamide], the EC50 was 5 nM.

Take `CC(C)(C)c1ccnc(Cn2c(=O)[nH]c3ccccc32)c1` [Example 63, 1-[(4-tert-butylpyridin-2-yl)methyl]-1,3-dihydro-2H-benzimidazol-2-one]: the concentration giving a half-maximal response (EC50) is 4530 nM.

As for `O=C1NCc2ccc(Cn3c(=O)[nH]c4ccccc43)cc21` [Example 10, 1-[(3-oxo-2,3-dihydro-1H-isoindol-5-yl)methyl]-1,3-dihydro-2H-benzimidazol-2-one], the EC50 came to 22 nM.

With `O=c1[nH]c2c(F)cccc2n1Cc1ccccc1` [Example 68, 1-benzyl-4-fluoro-1,3-dihydro-2H-benzo[d]imidazol-2-one], the EC50 came to 1390 nM.

For `COc1ccccc1Cn1c(=O)[nH]c2cccc(C)c21` [Example 91, 1-(2-methoxybenzyl)-7-methyl-1,3-dihydro-2H-benzo[d]imidazol-2-one], the 50% effective concentration (EC50) was found to be 1340 nM.

Regarding `O=C1C=CCN1Cc1ccc(Cn2c(=O)[nH]c3ccccc32)cc1` [Example 2, 1-(4-((2-oxo-2,5-dihydro-1H-pyrrol-1-yl)methyl)benzyl)-1,3-dihydro-2H-benzo[d]imidazol-2-one], the half-maximal effective concentration (EC50) stood at 13 nM.

Turning to `CC(=O)N[C@H](C)c1ccc(Cn2c(=O)[nH]c3ccccc32)cc1` [Example 15, (R)—N-(1-(4-((2-oxo-2,3-dihydro-1H-benzo[d]imidazol-1-yl)methyl)phenyl)ethyl)acetamide], the EC50 came out at 19 nM.

Take `O=C1OCCN1Cc1ccc(Cn2c(=O)[nH]c3ccccc32)cc1` [Example 74, 3-(4-((2-oxo-2,3-dihydro-1H-benzo[d]imidazol-1-yl)methyl)benzyl) oxazolidin-2-one]: the EC50 was found to be 7 nM.

In the case of `N#CC1(c2cccc(Cn3c(=O)[nH]c4ccccc43)c2)CC1` [Example 35, 1-{3-[(2-oxo-2,3-dihydro-1H-benzimidazol-1-yl)methyl]phenyl} cyclopropane-1-carbonitrile], the EC50 was 2 nM.

Regarding `CNC(=O)c1cc(C)cc(Cn2c(=O)[nH]c3ccccc32)c1` [Example 48, N,3-dimethyl-5-((2-oxo-2,3-dihydro-1H-benzo[d]imidazol-1-yl)methyl)benzamide], the concentration giving a half-maximal response (EC50) came out at 16 nM.

`N#Cc1n[nH]c2ccc(Cn3c(=O)[nH]c4ccccc43)cc12` [Example 42, 5-((2-oxo-2,3-dihydro-1H-benzo[d]imidazol-1-yl)methyl)-1H-indazole-3-carbonitrile]: the concentration giving a half-maximal response (EC50) is 2 nM.

In the case of `O=C1CCCN1Cc1ccc(Cn2c(=O)[nH]c3cc(F)ccc32)cc1` (single isomer, unassigned) [Example 85, 5-fluoro-1-(4-((2-oxopyrrolidin-1-yl)methyl)benzyl)-1,3-dihydro-2H-benzo[d]imidazol-2-one], the EC50 was 389 nM.

Regarding `O=c1[nH]c2ccccc2n1CCN1CCCCC1` [Example 62, 1-[2-(piperidin-1-yl)ethyl]-1,3-dihydro-2H-benzimidazol-2-one], the EC50 was determined as 1240 nM.

For the compound `Cn1cnnc1Cc1ccc(Cn2c(=O)[nH]c3ccccc32)cc1` [Example 53, 1-(4-((4-methyl-4H-1,2,4-triazol-3-yl)methyl)benzyl)-1,3-dihydro-2H-benzo[d]imidazol-2-one], the EC50 came to 12 nM.

Consider `COc1cccc(Cn2c(=O)n(C)c3cc(Cl)ccc32)c1` [Example 90, 5-chloro-1-(3-methoxybenzyl)-3-methyl-1,3-dihydro-2H-benzo[d]imidazol-2-one], for which the EC50 came to 227 nM.

Turning to `CC(=O)NCc1ccc(Cn2c(=O)[nH]c3ccccc32)cc1` [Example 11, N-(4-((2-oxo-2,3-dihydro-1H-benzo[d]imidazol-1-yl)methyl)benzyl)acetamide], the concentration for a half-maximal effect (EC50) is 6 nM.

Consider `CC(=O)NC1CCc2ccc(Cn3c(=O)[nH]c4ccccc43)cc21` (single isomer, unassigned) [Example 45, N-(6-((2-oxo-2,3-dihydro-1H-benzo[d]imidazol-1-yl)methyl)-2,3-dihydro-1H-inden-1-yl)acetamide], for which the EC50 was determined as 21 nM.

On to `CC(C1CCCCC1)n1c(=O)[nH]c2ccccc21` (stereo not shown) [Example 88, 1-(1-cyclohexylethyl)-1,3-dihydro-2H-benzo[d]imidazol-2-one], for which the EC50 amounted to 10000 nM.

On to `O=C1CCCN1Cc1ccc(Cn2c(=O)[nH]c3ccccc32)cc1I` [Example 19, 1-(3-iodo-4-((2-oxopyrrolidin-1-yl)methyl)benzyl)-1,3-dihydro-2H-benzo[d]imidazol-2-one], for which the EC50 came out at 14 nM.

As to `CNC(=O)C1CCc2cc(Cn3c(=O)[nH]c4ccccc43)ccc21` (single isomer, unassigned) [Example 46, N-methyl-5-((2-oxo-2,3-dihydro-1H-benzo[d]imidazol-1-yl)methyl)-2,3-dihydro-1H-indene-1-carboxamide], the concentration for a half-maximal effect (EC50) is 9 nM.

As for `CC(=O)NCc1ccc(Cn2c(=O)[nH]c3ccc(Cl)cc32)cc1` [Example 64, N-(4-((6-chloro-2-oxo-2,3-dihydro-1H-benzo[d]imidazol-1-yl)methyl)benzyl)acetamide], the EC50 stood at 56 nM.

Consider `CC(=O)NCc1ccc(Cn2c(=O)[nH]c3ccccc32)cc1Cl` [Example 44, N-(2-chloro-4-((2-oxo-2,3-dihydro-1H-benzo[d]imidazol-1-yl)methyl)benzyl)acetamide], for which the concentration for a half-maximal effect (EC50) was determined as 13 nM.

As for `O=c1[nH]c2ccccc2n1Cc1cnc2c(c1)CCC2` [Example 34, 1-[(6,7-dihydro-5H-cyclopenta[b]pyridin-3-yl)methyl]-1,3-dihydro-2H-benzimidazol-2-one], the 50% effective concentration (EC50) stood at 153 nM.

With `O=c1[nH]c2cc(F)c(F)cc2n1Cc1ccccc1` [Example 69, 1-benzyl-5,6-difluoro-1,3-dihydro-2H-benzo[d]imidazol-2-one], the half-maximal effective concentration (EC50) amounted to 2270 nM.

On to `O=c1[nH]c2ccccc2n1Cc1ccc(Cc2nnco2)c(Cl)c1` [Example 4, 1-(4-((1,3,4-oxadiazol-2-yl)methyl)-3-chlorobenzyl)-1,3-dihydro-2H-benzo[d]imidazol-2-one], for which the EC50 was found to be 6 nM.

Regarding `CNC(=O)c1cc(Cn2c(=O)[nH]c3ccccc32)ccc1OC` [Example 17, 2-methoxy-N-methyl-5-((2-oxo-2,3-dihydro-1H-benzo[d]imidazol-1-yl)methyl)benzamide], the EC50 stood at 12 nM.

Take `O=c1[nH]c2ccccc2n1C[C@@H]1C[C@H]1c1ccccc1` [Example 61, 1-{[(1R,2R)-2-phenylcyclopropyl]methyl}-1,3-dihydro-2H-benzimidazol-2-one]: the EC50 was 8 nM.

For `CN(Cc1ccc(Cn2c(=O)[nH]c3ccccc32)cc1)S(C)(=O)=O` [Example 21, N-methyl-N-({4-[(2-oxo-2,3-dihydro-1H-benzimidazol-1-yl)methyl]phenyl}methyl) methanesulfonamide], the EC50 was 8 nM.

Take `CC(=O)NCc1ccc(Cn2c(=O)[nH]c3ccccc32)c(C)c1` [Example 50, N-({3-methyl-4-[(2-oxo-2,3-dihydro-1H-benzimidazol-1-yl)methyl]phenyl}methyl)acetamide]: the concentration giving a half-maximal response (EC50) came out at 9 nM.

As to `CC(C)Oc1cccc(Cn2c(=O)[nH]c3ccccc32)c1` [Example 71, 1-(3-isopropoxybenzyl)-1,3-dihydro-2H-benzo[d]imidazol-2-one], the concentration for a half-maximal effect (EC50) was found to be 45 nM.

Consider `O=C1CC2(CC2)CN1Cc1ccc(Cn2c(=O)[nH]c3ccccc32)cc1` [Example 22, 1-({4-[(6-oxo-5-azaspiro[2.4]heptan-5-yl)methyl]phenyl}methyl)-1,3-dihydro-2H-benzimidazol-2-one], for which the 50% effective concentration (EC50) came to 8 nM.
